Test results: article PMC8550792, “Evolution of kinase polypharmacology across HSP90 drug discovery” (Cell Chemical Biology, 2021)
Read-outs that look alike come from different tables or passages of the source.

Legend:
[1] = tested on: 16-kinase panel; assay: 16-kinase panel screening, in vitro radiometric assay; assay type: biochemical, human; conditions: 10 μM
[2] = tested on: TRAP1; parameters: method as in ChEMBL23 (accessed: 23/08/2018); conditions: average of reported values; ref ChEMBL23 (accessed: 23/08/2018); cited from earlier work
[3] = target: T1, TRKC (Homo sapiens, UniProt Q16288); assay: HotSpot in vitro kinase radiometric assay; assay type: biochemical; conditions: 10uM, ATP 100 uM, Data 1, Data 2
T1 construct: purchased Reaction Biology (HotSpot contract assay)

[4] = target: T2, FYN (Homo sapiens, UniProt P06241); assay: HotSpot in vitro kinase radiometric assay; assay type: biochemical; conditions: 10uM, ATP 30 uM, Data 1, Data 2
T2 construct: purchased Reaction Biology (HotSpot contract assay)

[5] = target: T3, ABL2/ARG (Homo sapiens, UniProt P42684); assay: HotSpot in vitro kinase radiometric assay; assay type: biochemical; conditions: 10uM, ATP 30 uM, Data 1, Data 2
T3 construct: purchased Reaction Biology (HotSpot contract assay)

[6] = target: T4, PEAK1 (Homo sapiens, UniProt Q9H792); assay: HotSpot in vitro kinase radiometric assay; assay type: biochemical; conditions: 10uM, ATP 30 uM, Data 1, Data 2
T4 construct: purchased Reaction Biology (HotSpot contract assay)

[7] = target: T5, LCK (Homo sapiens, UniProt P06239); assay: HotSpot in vitro kinase radiometric assay; assay type: biochemical; conditions: 10uM, ATP 15 uM, Data 1, Data 2
T5 construct: purchased Reaction Biology (HotSpot contract assay)

[8] = target: ABL1 (Homo sapiens, UniProt P00519); assay: HotSpot in vitro kinase radiometric assay; assay type: biochemical; parameters: purchased Reaction Biology (HotSpot contract assay); conditions: 10uM, ATP 40 uM, Data 1, Data 2
[9] = target: T6, FGR (Homo sapiens, UniProt P09769); assay: HotSpot in vitro kinase radiometric assay; assay type: biochemical; conditions: 10uM, ATP 50 uM, Data 1, Data 2
T6 construct: purchased Reaction Biology (HotSpot contract assay)

[10] = target: T7, BLK (Homo sapiens, UniProt P51451); assay: HotSpot in vitro kinase radiometric assay; assay type: biochemical; conditions: 10uM, ATP 10 uM, Data 1, Data 2
T7 construct: purchased Reaction Biology (HotSpot contract assay)
Procedure: (§1) Accordingly, we selected five additional representative HSP90 inhibitors, at least one from each chemical class, including both synthetic inhibitors and natural products. […]
(§2) This radioisotope binding assay was designed to directly detect the true product without the use of modified substrates, coupling enzymes, or detection antibodies thus enabling to directly measure inhibition of catalytic activity. Test or control compounds were incubated with kinase, substrate, cofactors, and radioisotope-labeled ATP (32P-ɣ-ATP or 33P-ɣ-ATP). The reaction mixtures were then spotted onto filter papers, which bind the radioisotope-labeled catalytic product.

[11] = target: T8, c-Src (Homo sapiens, UniProt P12931); assay: HotSpot in vitro kinase radiometric assay; assay type: biochemical; conditions: 10uM, ATP 15 uM, Data 1, Data 2
T8 construct: purchased Reaction Biology (HotSpot contract assay)
Procedure: as §1, §2

[12] = target: T9, LYN B (Homo sapiens, UniProt P07948); assay: HotSpot in vitro kinase radiometric assay; assay type: biochemical; conditions: 10uM, ATP 20 uM, Data 1, Data 2
T9 construct: purchased Reaction Biology (HotSpot contract assay)
Procedure: as §1, §2

[13] = target: T10, PDK4/PDKH4 (Homo sapiens, UniProt Q16654); assay: HotSpot in vitro kinase radiometric assay; assay type: biochemical; conditions: 10uM, ATP 30 uM, Data 1, Data 2
T10 construct: purchased Reaction Biology (HotSpot contract assay)
Procedure: as §1, §2

[14] = target: DDR1 (Homo sapiens, UniProt Q08345); assay: HotSpot in vitro kinase radiometric assay; assay type: biochemical; parameters: purchased Reaction Biology (HotSpot contract assay); conditions: 10uM, ATP 100 uM, Data 1, Data 2
[15] = target: T11, PASK (Homo sapiens, UniProt Q96RG2); assay: HotSpot in vitro kinase radiometric assay; assay type: biochemical; conditions: 10uM, ATP 50 uM, Data 1, Data 2
T11 construct: purchased Reaction Biology (HotSpot contract assay)
Text: (§3) Accordingly, we selected five additional representative HSP90 inhibitors, at least one from each chemical class, including both synthetic inhibitors and natural products.
(§4) Accordingly, we screened the hit compound and the two leads for kinase off-target inhibition using the 16-kinase panel and the same in vitro catalytic assay used previously.
as §2

[16] = target: T12, TRKA (Homo sapiens, UniProt P04629); assay: HotSpot in vitro kinase radiometric assay; assay type: biochemical; conditions: 10uM, ATP 100 uM, Data 1, Data 2
T12 construct: purchased Reaction Biology (HotSpot contract assay)
Text: as §3, §4, §2

[17] = target: T13, YES/YES1 (Homo sapiens, UniProt P07947); assay: HotSpot in vitro kinase radiometric assay; assay type: biochemical; conditions: 10uM, ATP 50 uM, Data 1, Data 2
T13 construct: purchased Reaction Biology (HotSpot contract assay)

[18] = tested on: HSP90AB1; parameters: method as in ChEMBL23 (accessed: 23/08/2018); conditions: average of reported values; ref ChEMBL23 (accessed: 23/08/2018); cited from earlier work
[19] = target: T14, PDK2/PDHK2 (Homo sapiens, UniProt Q15119); assay: HotSpot in vitro kinase radiometric assay; assay type: biochemical; conditions: PDK2/PDHK2, 10uM, ATP 15 uM, Data 1, Data 2
T14 construct: purchased Reaction Biology (HotSpot contract assay)
Procedure: as §1, §2

[20] = tested on: 382 unique human kinases; assay: biochemical; assay type: biochemical; conditions: cutoff of >85% inhibition at 10 μM; luminespib and ganetespib large kinome panel, others 16-kinase panel
[21] = TRKC, read-out: % Enzyme Activity (relative to DMSO controls)
[22] = FYN, read-out: % Enzyme Activity (relative to DMSO controls)
[23] = ABL2/ARG, read-out: % Enzyme Activity (relative to DMSO controls)
[24] = PEAK1, read-out: % Enzyme Activity (relative to DMSO controls)
[25] = LCK, read-out: % Enzyme Activity (relative to DMSO controls)
[26] = ABL1, read-out: % Enzyme Activity (relative to DMSO controls)
[27] = FGR, read-out: % Enzyme Activity (relative to DMSO controls)
[28] = BLK, read-out: % Enzyme Activity (relative to DMSO controls)
[29] = c-Src, read-out: % Enzyme Activity (relative to DMSO controls)
[30] = LYN B, read-out: % Enzyme Activity (relative to DMSO controls)
[31] = PDK4/PDKH4, read-out: % Enzyme Activity (relative to DMSO controls)
[32] = DDR1, read-out: % Enzyme Activity (relative to DMSO controls)
[33] = PASK, read-out: % Enzyme Activity (relative to DMSO controls)
[34] = TRKA, read-out: % Enzyme Activity (relative to DMSO controls)
[35] = YES/YES1, read-out: % Enzyme Activity (relative to DMSO controls)

T6 sequence (P09769 whole entry): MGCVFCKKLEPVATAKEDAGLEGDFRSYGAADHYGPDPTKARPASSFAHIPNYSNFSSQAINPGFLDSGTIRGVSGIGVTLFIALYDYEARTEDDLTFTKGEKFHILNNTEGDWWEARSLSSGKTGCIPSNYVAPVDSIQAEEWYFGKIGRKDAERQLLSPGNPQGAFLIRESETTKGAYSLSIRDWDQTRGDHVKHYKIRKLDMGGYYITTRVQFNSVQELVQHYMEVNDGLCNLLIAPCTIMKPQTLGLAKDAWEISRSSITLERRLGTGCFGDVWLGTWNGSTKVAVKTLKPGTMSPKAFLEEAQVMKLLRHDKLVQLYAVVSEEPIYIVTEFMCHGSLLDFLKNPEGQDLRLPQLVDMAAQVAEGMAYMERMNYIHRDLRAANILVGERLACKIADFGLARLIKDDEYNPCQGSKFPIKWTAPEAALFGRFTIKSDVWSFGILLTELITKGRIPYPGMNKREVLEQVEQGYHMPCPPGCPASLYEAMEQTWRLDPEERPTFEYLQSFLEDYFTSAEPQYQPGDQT
T8 sequence (P12931 whole entry): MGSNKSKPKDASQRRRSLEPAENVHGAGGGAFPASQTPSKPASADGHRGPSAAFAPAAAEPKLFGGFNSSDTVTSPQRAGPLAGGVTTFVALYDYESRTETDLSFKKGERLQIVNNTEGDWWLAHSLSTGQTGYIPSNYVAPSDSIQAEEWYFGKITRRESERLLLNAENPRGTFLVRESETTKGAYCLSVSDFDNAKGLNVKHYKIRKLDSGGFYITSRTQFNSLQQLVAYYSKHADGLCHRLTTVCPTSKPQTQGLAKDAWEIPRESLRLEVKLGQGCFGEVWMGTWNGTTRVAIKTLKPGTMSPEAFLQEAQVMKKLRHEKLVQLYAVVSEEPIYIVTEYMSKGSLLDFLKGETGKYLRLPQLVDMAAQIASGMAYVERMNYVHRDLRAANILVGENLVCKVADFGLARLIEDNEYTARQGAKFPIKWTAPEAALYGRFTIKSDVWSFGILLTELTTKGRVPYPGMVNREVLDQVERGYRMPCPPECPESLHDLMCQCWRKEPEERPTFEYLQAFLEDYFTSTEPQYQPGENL
T11 sequence (Q96RG2 whole entry): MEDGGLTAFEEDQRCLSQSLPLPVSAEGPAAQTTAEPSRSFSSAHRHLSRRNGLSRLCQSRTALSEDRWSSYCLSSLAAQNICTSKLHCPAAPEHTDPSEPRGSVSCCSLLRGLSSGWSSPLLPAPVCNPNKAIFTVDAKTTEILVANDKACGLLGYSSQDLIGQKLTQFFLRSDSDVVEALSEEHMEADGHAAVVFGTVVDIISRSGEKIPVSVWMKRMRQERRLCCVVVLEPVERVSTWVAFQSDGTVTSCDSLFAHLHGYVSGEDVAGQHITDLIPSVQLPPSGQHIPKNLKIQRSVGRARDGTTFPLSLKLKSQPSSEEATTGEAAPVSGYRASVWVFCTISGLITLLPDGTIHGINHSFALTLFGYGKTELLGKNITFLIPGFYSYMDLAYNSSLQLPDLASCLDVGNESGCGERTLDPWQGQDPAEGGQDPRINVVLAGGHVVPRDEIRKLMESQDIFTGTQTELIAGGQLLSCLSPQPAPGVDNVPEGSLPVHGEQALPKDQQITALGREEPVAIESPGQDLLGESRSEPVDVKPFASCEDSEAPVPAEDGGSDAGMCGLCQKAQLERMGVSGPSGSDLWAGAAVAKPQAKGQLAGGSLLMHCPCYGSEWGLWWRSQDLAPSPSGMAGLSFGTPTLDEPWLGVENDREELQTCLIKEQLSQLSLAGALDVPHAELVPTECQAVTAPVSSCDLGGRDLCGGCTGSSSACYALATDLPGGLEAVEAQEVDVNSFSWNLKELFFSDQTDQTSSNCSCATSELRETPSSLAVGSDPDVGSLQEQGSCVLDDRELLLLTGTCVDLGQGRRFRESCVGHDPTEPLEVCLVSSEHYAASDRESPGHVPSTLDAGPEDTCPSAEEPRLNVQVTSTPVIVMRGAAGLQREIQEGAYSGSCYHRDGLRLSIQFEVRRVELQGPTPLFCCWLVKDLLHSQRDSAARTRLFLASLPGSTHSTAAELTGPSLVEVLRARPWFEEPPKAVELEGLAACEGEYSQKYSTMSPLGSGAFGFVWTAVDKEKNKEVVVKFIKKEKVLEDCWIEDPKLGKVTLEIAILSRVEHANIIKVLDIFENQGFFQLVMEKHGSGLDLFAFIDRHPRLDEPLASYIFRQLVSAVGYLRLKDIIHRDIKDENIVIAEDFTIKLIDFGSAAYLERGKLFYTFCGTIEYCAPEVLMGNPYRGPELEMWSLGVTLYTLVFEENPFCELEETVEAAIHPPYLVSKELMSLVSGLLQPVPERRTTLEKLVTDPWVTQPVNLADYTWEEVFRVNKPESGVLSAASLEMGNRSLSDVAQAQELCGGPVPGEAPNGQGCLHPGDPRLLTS
ABL1, sequence (P00519 whole entry): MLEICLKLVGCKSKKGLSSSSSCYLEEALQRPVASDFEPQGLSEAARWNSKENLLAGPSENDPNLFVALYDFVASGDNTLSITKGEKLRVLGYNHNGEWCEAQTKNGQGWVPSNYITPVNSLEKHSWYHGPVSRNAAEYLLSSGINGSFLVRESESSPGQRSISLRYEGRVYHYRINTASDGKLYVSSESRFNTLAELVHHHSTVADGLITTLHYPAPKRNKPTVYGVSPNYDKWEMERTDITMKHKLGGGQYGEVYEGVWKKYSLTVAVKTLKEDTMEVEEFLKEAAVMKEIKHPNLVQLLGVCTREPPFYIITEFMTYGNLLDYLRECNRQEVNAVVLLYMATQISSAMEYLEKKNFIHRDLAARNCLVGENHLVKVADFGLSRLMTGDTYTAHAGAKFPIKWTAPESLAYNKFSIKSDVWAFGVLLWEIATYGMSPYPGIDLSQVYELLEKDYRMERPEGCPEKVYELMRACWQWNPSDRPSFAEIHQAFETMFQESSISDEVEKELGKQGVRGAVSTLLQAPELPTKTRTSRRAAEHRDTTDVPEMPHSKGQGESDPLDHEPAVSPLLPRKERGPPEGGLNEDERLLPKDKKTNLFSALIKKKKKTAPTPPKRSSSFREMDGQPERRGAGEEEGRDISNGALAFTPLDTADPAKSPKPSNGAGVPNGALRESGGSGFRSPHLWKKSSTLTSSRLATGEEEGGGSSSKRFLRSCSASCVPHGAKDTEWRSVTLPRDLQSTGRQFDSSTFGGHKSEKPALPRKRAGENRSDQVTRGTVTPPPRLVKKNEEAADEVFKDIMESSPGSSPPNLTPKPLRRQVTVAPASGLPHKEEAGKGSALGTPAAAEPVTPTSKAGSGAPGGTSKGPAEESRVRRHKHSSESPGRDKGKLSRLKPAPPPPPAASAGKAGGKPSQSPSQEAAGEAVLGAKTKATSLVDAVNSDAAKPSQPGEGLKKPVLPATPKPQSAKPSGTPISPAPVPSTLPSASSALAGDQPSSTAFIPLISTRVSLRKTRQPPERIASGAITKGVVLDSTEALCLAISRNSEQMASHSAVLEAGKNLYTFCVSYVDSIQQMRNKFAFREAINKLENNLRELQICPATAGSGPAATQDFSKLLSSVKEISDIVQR
T9 sequence (P07948 1-491 isoform P07948-2): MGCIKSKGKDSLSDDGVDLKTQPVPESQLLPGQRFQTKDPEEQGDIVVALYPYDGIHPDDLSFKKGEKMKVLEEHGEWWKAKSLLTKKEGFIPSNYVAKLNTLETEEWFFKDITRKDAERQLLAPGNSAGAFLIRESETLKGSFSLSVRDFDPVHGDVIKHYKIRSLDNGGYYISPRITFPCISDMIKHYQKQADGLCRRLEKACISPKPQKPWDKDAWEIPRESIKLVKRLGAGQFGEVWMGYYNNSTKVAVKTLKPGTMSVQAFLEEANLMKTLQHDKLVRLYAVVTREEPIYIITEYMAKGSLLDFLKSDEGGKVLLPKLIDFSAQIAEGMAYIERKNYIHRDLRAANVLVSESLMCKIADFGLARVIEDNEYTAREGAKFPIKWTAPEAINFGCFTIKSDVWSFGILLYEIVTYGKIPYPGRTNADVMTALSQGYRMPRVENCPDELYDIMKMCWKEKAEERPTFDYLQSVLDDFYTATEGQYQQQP
T12 sequence (P04629 33-796): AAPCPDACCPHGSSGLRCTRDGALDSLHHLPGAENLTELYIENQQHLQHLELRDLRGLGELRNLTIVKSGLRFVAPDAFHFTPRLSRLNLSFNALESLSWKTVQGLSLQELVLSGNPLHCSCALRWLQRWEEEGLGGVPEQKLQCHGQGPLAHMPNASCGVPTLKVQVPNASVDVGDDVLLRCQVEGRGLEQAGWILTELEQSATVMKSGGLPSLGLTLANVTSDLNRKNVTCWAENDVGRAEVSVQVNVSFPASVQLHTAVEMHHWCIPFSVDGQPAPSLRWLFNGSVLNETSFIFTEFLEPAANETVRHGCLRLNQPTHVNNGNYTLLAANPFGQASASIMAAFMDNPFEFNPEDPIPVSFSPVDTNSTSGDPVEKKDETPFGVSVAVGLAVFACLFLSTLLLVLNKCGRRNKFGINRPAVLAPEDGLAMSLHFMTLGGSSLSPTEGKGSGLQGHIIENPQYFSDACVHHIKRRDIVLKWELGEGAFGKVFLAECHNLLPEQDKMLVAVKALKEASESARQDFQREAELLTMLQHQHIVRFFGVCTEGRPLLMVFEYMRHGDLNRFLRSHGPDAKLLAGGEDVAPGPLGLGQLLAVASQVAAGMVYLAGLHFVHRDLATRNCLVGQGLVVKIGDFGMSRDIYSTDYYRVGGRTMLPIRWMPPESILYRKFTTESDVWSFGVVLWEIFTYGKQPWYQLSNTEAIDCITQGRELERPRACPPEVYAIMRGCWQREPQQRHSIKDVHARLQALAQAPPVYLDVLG

For `COC1=C2C[C@@H](C)C[C@H](OC)[C@H](O)[C@@H](C)/C=C(\C)[C@H](OC(N)=O)[C@@H](OC)/C=C\C=C(/C)C(=O)NC(=CC1=O)C2=O` [Geldanamycin], the “activity against the 16-kinase panel” value [1] is given as “inactive”, the “pActivity, TRAP1” value [2] is given as 6.18 and the remaining activity at 10 µM [3, 21] is given as 99.5%. It also gave a remaining activity at 10 µM [4, 22] of 121%, a remaining activity at 10 µM [5, 23] of 115% and a remaining activity at 10 µM [6, 24] of 108%. The remaining activity at 10 µM [7, 25] was 125%, the remaining activity at 10 µM [8, 26] was 100% and the remaining activity at 10 µM [9, 27] was 113%. For the same molecule, the remaining activity at 10 µM [10, 28] was 121%, the remaining activity at 10 µM [11, 29] was 110% and the remaining activity at 10 µM [12, 30] was 111%. The remaining activity at 10 µM [13, 31] was 100%, the remaining activity at 10 µM [14, 32] was 104% and the remaining activity at 10 µM [15, 33] was 106%. For the same molecule, the remaining activity at 10 µM [16, 34] was 104%, the remaining activity at 10 µM [17, 35] was 103% and the “pActivity, HSP90AB1” value [18] was 6.99.

With `CC(C)c1cc(C(=O)N2Cc3ccc(CN4CCN(C)CC4)cc3C2)c(O)cc1O` [Onalespib] the “activity against the 16-kinase panel” value [1] was “inactive”, the “% Enzyme Activity (relative to DMSO controls)” value ([3]; TRKC) was 89.51% and the remaining activity at 10 µM [3, 21] was 93%. The “% Enzyme Activity (relative to DMSO controls)” value ([4]; FYN) was 106.38%, the remaining activity at 10 µM [4, 22] was 108% and the “% Enzyme Activity (relative to DMSO controls)” value ([5]; ABL2/ARG) was 104.31%. For the same molecule, the remaining activity at 10 µM [5, 23] was 105%, the “% Enzyme Activity (relative to DMSO controls)” value ([6]; PEAK1) was 102.81% and the remaining activity at 10 µM [6, 24] was 104%. For the same molecule, the “% Enzyme Activity (relative to DMSO controls)” value ([7]; LCK) was 100%, the remaining activity at 10 µM [7, 25] was 100% and the “% Enzyme Activity (relative to DMSO controls)” value ([8]; ABL1) was 103.3%. For the same molecule, the remaining activity at 10 µM [8, 26] was 105%, the “% Enzyme Activity (relative to DMSO controls)” value ([9]; FGR) was 101.62% and the remaining activity at 10 µM [9, 27] was 102%. The “% Enzyme Activity (relative to DMSO controls)” value ([10]; BLK) was 107.96%, the remaining activity at 10 µM [10, 28] was 108% and the “% Enzyme Activity (relative to DMSO controls)” value ([11]; c-Src) was 97.5%. The remaining activity at 10 µM [11, 29] was 98.7%, the “% Enzyme Activity (relative to DMSO controls)” value ([12]; LYN B) was 109.85% and the remaining activity at 10 µM [12, 30] was 110%. The “% Enzyme Activity (relative to DMSO controls)” value ([13]; PDK4/PDKH4) was 96.17%, the remaining activity at 10 µM [13, 31] was 96.5% and the “% Enzyme Activity (relative to DMSO controls)” value [19] was 75.57%. The remaining activity at 10 µM ([19]; read-out: % Enzyme Activity (relative to DMSO controls)) was 79.6%, the “% Enzyme Activity (relative to DMSO controls)” value ([14]; DDR1) was 87.99% and the remaining activity at 10 µM [14, 32] was 106%. The “% Enzyme Activity (relative to DMSO controls)” value ([15]; PASK) was 105.18%, the remaining activity at 10 µM [15, 33] was 100% and the “% Enzyme Activity (relative to DMSO controls)” value ([16]; TRKA) was 99.91%. For the same molecule, the remaining activity at 10 µM [16, 34] was 105%, the “% Enzyme Activity (relative to DMSO controls)” value ([17]; YES/YES1) was 99.53% and the remaining activity at 10 µM [17, 35] was 99.6%. For the same molecule, the “pActivity, HSP90AB1” value [18] was 6.99 and the “number of off-target kinases experimentally identified, In vitro binding (KinomeSCAN)” value [20] was 0.

In the case of `CC1(C)CC(=O)c2c(C(F)(F)F)nn(-c3ccc(C(N)=O)c(N[C@H]4CC[C@H](O)CC4)c3)c2C1` [SNX-2112], the “activity against the 16-kinase panel” value [1] is listed as “inactive”, the “pActivity, TRAP1” value [2] is listed as 6.12 and the remaining activity at 10 µM ([3]; read-out: % Enzyme Activity (relative to DMSO controls), TRKC) is listed as 93%. The remaining activity at 10 µM ([4]; read-out: % Enzyme Activity (relative to DMSO controls), FYN) was 113%, the remaining activity at 10 µM ([5]; read-out: % Enzyme Activity (relative to DMSO controls), ABL2/ARG) was 114% and the remaining activity at 10 µM ([6]; read-out: % Enzyme Activity (relative to DMSO controls), PEAK1) was 105%. The remaining activity at 10 µM ([7]; read-out: % Enzyme Activity (relative to DMSO controls), LCK) was 114%, the remaining activity at 10 µM ([8]; read-out: % Enzyme Activity (relative to DMSO controls), ABL1) was 109% and the remaining activity at 10 µM ([9]; read-out: % Enzyme Activity (relative to DMSO controls), FGR) was 111%. For the same molecule, the remaining activity at 10 µM ([10]; read-out: % Enzyme Activity (relative to DMSO controls), BLK) was 116%, the remaining activity at 10 µM ([11]; read-out: % Enzyme Activity (relative to DMSO controls), c-Src) was 99% and the remaining activity at 10 µM ([12]; read-out: % Enzyme Activity (relative to DMSO controls), LYN B) was 107%. For the same molecule, the remaining activity at 10 µM ([13]; read-out: % Enzyme Activity (relative to DMSO controls), PDK4/PDKH4) was 94.8%, the remaining activity at 10 µM ([14]; read-out: % Enzyme Activity (relative to DMSO controls), DDR1) was 93.4% and the remaining activity at 10 µM ([15]; read-out: % Enzyme Activity (relative to DMSO controls), PASK) was 101%. The remaining activity at 10 µM ([16]; read-out: % Enzyme Activity (relative to DMSO controls), TRKA) was 107%, the remaining activity at 10 µM ([17]; read-out: % Enzyme Activity (relative to DMSO controls), YES/YES1) was 101% and the “pActivity, HSP90AB1” value [18] was 8.34. The “number of off-target kinases experimentally identified, In vitro binding (KinomeSCAN)” value [20] was 0.
